Measured values from article PMC7136958, “Targeting the pregnane X receptor using microbial metabolite mimicry” (EMBO Molecular Medicine, 2020).
Where “and” joins values, the source holds several entries; their conditions need not be identical. Identical values can stand only once.

Biological target: T1, PARP 1 (Homo sapiens, UniProt P09874)
T1 construct: purchased Reaction Biology Corp. (RBC) PAR-21-346
Assay: PARP assay (Reaction Biology)
Assay type: biochemical
Details: replicates
Protocol: The following […] assays (HDAC, SIRT1, PRMT1, PARP1, p300, pCAF) were performed by Reaction Biology Corp. FKK6 was screened at a single concentration of 10 μM in duplicate in two separate experiments. The appropriate controls for the individual assays are published. The overall […]
enzyme activity in the assay is reported as a % activity in DMSO control wells. Control IC50 […]
Briefly, for the Sirtuin (SIRT1) assay, human SIRT1 (GenBank
Accession No. NM012238) full -length N-terminal His-tag protein (MW 83.2 kDa) was purified after expression in E. coli. The reaction buffer was freshly prepared and constituted 50 mM Tris-HC l ( p H 8), 137 mM NaCl, 2.7 mM KCl, 1 mM MgCl2, and just before use, 1 mg/mL BSA and 1% DMSO was added. The substrate was a fluorogenic acetylated peptide of p53 residues 379-382 (RHKK (Ac)- AM C) . In th e multi-well format, the 2X enzyme was mixed with the reaction buffer followed by compound (in 100% DMSO) titration via Acoustic technology (Echo550; LabCyte Inc, Sunnyvale, CA) in the nanoliter range. The mixture was spun down and 2X substrate (including NAD+) was added to initiate the reaction at 30° C at 2h under seal. […] Fluorescence kinetic measurements were conducted for 1.5 h in 15 min intervals using Envision (Ex 360nm/Em 460nm). […] The compound mixture was placed on filter paper and washed with 0.75% phosphoric acid and radioactivity counted. […]

T1 sequence (P09874 whole entry, species assumed): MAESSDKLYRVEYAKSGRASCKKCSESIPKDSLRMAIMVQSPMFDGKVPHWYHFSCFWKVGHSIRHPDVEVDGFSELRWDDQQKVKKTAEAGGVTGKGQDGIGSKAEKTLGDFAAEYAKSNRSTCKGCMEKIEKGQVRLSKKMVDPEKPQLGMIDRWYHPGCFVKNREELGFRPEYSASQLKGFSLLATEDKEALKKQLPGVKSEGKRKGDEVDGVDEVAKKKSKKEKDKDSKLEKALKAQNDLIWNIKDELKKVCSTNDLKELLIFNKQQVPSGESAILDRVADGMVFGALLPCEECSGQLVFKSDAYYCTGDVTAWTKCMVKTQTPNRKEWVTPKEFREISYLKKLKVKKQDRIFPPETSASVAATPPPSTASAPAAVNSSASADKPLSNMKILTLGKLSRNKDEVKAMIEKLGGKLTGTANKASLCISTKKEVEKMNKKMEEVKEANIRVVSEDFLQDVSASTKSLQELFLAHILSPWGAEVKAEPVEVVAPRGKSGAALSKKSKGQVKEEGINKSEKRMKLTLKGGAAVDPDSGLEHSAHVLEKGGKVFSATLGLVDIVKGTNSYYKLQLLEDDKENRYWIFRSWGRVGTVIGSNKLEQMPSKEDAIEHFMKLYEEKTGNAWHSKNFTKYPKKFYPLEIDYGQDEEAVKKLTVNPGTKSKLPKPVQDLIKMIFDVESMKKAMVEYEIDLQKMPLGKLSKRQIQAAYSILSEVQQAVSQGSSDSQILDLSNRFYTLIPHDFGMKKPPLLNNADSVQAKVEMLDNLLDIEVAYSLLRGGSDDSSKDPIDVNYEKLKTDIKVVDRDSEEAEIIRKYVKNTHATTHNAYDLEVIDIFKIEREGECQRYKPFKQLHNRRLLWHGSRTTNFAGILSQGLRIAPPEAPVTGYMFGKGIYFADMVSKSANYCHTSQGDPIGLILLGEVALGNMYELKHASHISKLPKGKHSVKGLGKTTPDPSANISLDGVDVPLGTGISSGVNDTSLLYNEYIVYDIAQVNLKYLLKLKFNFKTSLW

SMILES: C#CCC(O)(c1ccncc1)c1cc2ccccc2n1S(=O)(=O)c1ccccc1 (centres unmarked) [FKK6]
- % Enzyme Activity to DMSO controls (10 μM): 98.25% and 91.38% and 91.03%
- remaining activity at 10 µM (read-out: % Enzyme Activity to DMSO controls): 99.2%
